The source of these data is US9284309B2, “Di- and tri-heteroaryl derivatives as inhibitors of protein aggregation” (Neuropore Therapies, Inc., priority 2012, dated 2016).

In this assay the target is T1, α-synuclein (Homo sapiens, UniProt P37840).
T1 construct: expressed in transfected cells
The assay can be described thus: calcein assay of membrane integrity (reversal of α-synuclein-mediated disruption of cell membranes, FLIPR). The assay is classed as cell-based. Conditions: 0.01 μM test compound; neuronal cells infected with LV-α-synuclein, 24 h treatment in serum free media, calcein retention. As for the experimental part: (b) Neuronal Activity/Integrity. Toxic aggregates of α-synuclein disrupt the integrity of cell membranes. The disruptive effect of α-synuclein and the ability of test compounds to reverse the α-synuclein-mediated disruption of cell membranes are measured using calcein. Calcein is a fluorescent marker that is retained in healthy cells but is not retained in cells with diminished cellular integrity. To ascertain the effects on neuronal activity, cells are infected with LV-α-synuclein for 24 h, treated with test compound at a range of concentrations, for example 0.01-10 μM, for 24 h in serum free media, loaded with Fluo-4 or calcein, and analyzed by FLIPR assay to determine Ca^2+ and calcein levels. […] Test compounds are evaluated for the ability to restore concentrations of Ca^2+ to those in cells not infected with LV-α-synuclein. […] Test compounds are evaluated, in a concentration-dependent manner, for their ability to reverse the effect of α-synuclein on levels of calcein.

Turning to `CCCCn1nnc(C(Cc2c[nH]c3ccccc23)NC(=O)c2cnc(N3CCN(C)CC3)s2)n1` (stereo not drawn) [Example 5, N-(1-(2-butyl-2H-tetrazol-5-yl)-2-(1H-indol-3-yl)ethyl)-2-(4-methylpiperazin-1-yl)thiazole-5-carboxamide], the “Percent reversal of α-Syn mediated disruption of cell integrity” value (shortened to “Percent reversal”) was 110%.

As to `CCc1csc(C(Cc2c[nH]c3ccccc23)NC(=O)c2cnc(N3CCN(C)CC3)s2)n1` (stereo not drawn) [Example 6, N-(1-(4-ethylthiazol-2-yl)-2-(1H-indol-3-yl)ethyl)-2-(4-methylpiperazin-1-yl)thiazole-5-carboxamide], the “Percent reversal” value was 137%.

`CCCCNC(=N)C(Cc1c[nH]c2ccccc12)NC(=O)c1cnc(N2CCN(C)CC2)s1` (stereo not drawn) [Example 7, N-(1-(butylamino)-1-imino-3-(1H-indol-3-yl)propan-2-yl)-2-(4-methylpiperazin-1-yl)thiazole-5-carboxamide]: the “Percent reversal” value is 189%.

As to `CCCCNNC(=O)C(Cc1c[nH]c2ccccc12)NC(=O)c1cnc(N2CCN(C)CC2)s1` (stereo not drawn) [Example 8, N-(1-(2-butylhydrazinyl)-3-(1H-indol-3-yl)-1-oxopropan-2-yl)-2-(4-methylpiperazin-1-yl)thiazole-5-carboxamide], the “Percent reversal” value is 135%.

With `CCCc1nnc(C(Cc2c[nH]c3ccccc23)NC(=O)c2cnc(N3CCN(C)CC3)s2)s1` (stereo not drawn) [Example 9, N-(2-(1H-indol-3-yl)-1-(5-propyl-1,3,4-thiadiazol-2-yl)ethyl)-2-(4-methylpiperazin-1-yl)thiazole-5-carboxamide], the “Percent reversal” value was 187%.

Turning to `CCCc1nnc(C(Cc2c[nH]c3ccccc23)NC(=O)c2cnc(N3CCN(C)CC3)s2)[nH]1` (stereo not drawn) [Example 10, N-(2-(1H-indol-3-yl)-1-(5-propyl-4H-1,2,4-triazol-3-yl)ethyl)-2-(4-methylpiperazin-1-yl)thiazole-5-carboxamide], the “Percent reversal” value is listed as 115%.
